≈ marks a conversion by molar mass, not a printed value. Counter-ions that a name gives are not always drawn.
Columns and labels:
[1] = system: MCF-7 cells; test: MTT antiproliferative activity assay, MCF-7; format: cell-based, human; details: Homo sapiens, MCF7; MTT, 48 h treatment, average of three replicates; read-out: IC50 MCF-7
Method: (§1) Hep-2 (larynx carcinoma, ATCC: CCL-23), MCF-7 (breast epithelial adenocarcinoma, ATCC: HTB-22), and Vero (African green monkey kidney, ATCC: CCL-81) cell lines were kindly provided by Dr. Mona Hassuneh (Department of Biological Sciences, University of Jordan). Cells were grown in Minimum Essential Medium Eagle (Gibco, Paisley UK) supplemented with 10% heat inactivated fetal bovine serum (Gibco, Paisley UK), 29 μg/mL L-glutamine, and 40 μg/mL gentamicin. Cells were incubated in a humidified atmosphere of 5% CO2 at 37 °C.
(§2) The antiproliferative activity of Inula viscosa compounds was measured using the MTT (3-(4,5-dimethylthiazol-2-yl)-2,5-diphenyltetrazolium bromide) assay (Promega, Madison, WI, USA). The assay detects the reduction of MTT by mitochondrial dehydrogenase to blue formazan product, which reflects the normal function of mitochondria and cell viability. Exponentially growing cells were washed and seeded at 17,000 cells/well for Hep-2 cell line and 11,000 cells/ well for MCF-7 cell line (in 200 μL of growth medium) in 96 well microplates (Nunc, Roskilde, Denmark). After 24 h incubation, a partial monolayer was formed then the media was removed and 200 μL of the medium containing the compound (initially dissolved in DMSO) were added and re-incubated for 48 h. Then 100 μL of the medium were aspirated and 15 μL of the MTT solution were added to the remaining medium (100 μL) in each well. After 4 h contact with the MTT solution, blue crystals were formed. One hundred μL of the stop solution were added and incubated further for 1 h.
(§3) Reduced MTT was assayed at 550 nm using a microplate reader (Biotek, Winooski, VT, USA). Control groups received the same amount of DMSO (0.1%).Untreated cells were used as a negative control while, cells treated with vincristine sulfate were used as a positive control. Eight concentrations (150, 100, 50, 20, 10, 5, 2, and 1 μg/mL) were prepared from each compound and tested against the three cell lines. IC50 values were calculated as the concentrations that show 50% inhibition of proliferation on any tested cell line. Stock solutions of the compounds were dissolved in (DMSO) then diluted with the medium and sterilized using 0.2 μm membrane filters. The toxicity of DMSO was determined and the final dilution of compounds used for treating the cells contained not more than 0.1% (non toxic concentration) DMSO. IC50 values were reported as the average of three replicates. The antiproliferative effect of the tested compounds was determined by comparing the optical density of the treated cells against the optical density of the control (cells treated with media containing 0.1% DMSO).

[2] = system: Hep-2 cells; test: MTT antiproliferative activity assay, Hep-2; format: cell-based; details: Homo sapiens, HEp-2; MTT, 48 h treatment, average of three replicates; read-out: IC50 Hep-2
Method: as §1, §2, §3

[3] = system: Vero cells; test: MTT antiproliferative activity assay, Vero; format: cell-based, African green monkey; details: Chlorocebus sabaeus, Vero; MTT, 48 h treatment, average of three replicates; read-out: IC50 Vero
Method: as §1, §2, §3

[4] = system: Methicillin resistant Staphylococcus aureus (MRSA); test: Microtiter plate dilution MIC, MRSA; format: cell-based; details: Staphylococcus aureus, MRSA; clinical isolate, 24 h, 100% inhibition; read-out: Minimum inhibitory concentration (MIC) MRSA
Method: (§4) The microbial strains used in this study were Escherichia coli (ATCC 10798), Salmonella typhimurium (ATCC14028), Methicillin resistant Staphylococcus aureus (MRSA, Clinical isolate), Bacillus cereus (Toxigenic strain TS), and Candida albicans (ATCC 90028). Bacterial strains were stocked onto nutrient agar slant at 4 °C, and Candida albicans was stocked onto malt agar slant at 4 °C.
(§5) The microtiter plate dilution method was used to determine the MIC (minimum inhibitory concentration) of compounds under study. Sterile 96-well microplates (Nunc) were used for the assay. Stock compounds were dissolved in DMSO so that the final concentrations in micro wells were less than 1% DMSO and solvent controls were run at these concentrations. Positive controls of penicillin G and tetracycline (Oxoid, Hampshire, UK) were prepared at the following concentrations 2, 4, 8, 16, 31, 62.5, 125, and 250 μg/mL. 1% DMSO was used as a solvent control. Compounds were diluted to twice the desired initial test concentration (250 µg/mL) with Muller Hinton broth (MHB) (Oxoid). All wells, except the first were filled with MHB (50 μL). Compounds (100 μL) were added to the first well and serial two-fold dilutions were made down to the desired minimum concentration (2 μg/mL). An over-night culture of bacteria suspended in MHB was adjusted to turbidity equal to 0.5 McFarland standard. The plates were inoculated with bacterial suspension (50 μL/well) and incubated at 37 °C for 24 h. Then the turbidity was measured using micro-plate reader (Biotek) at 620 nm wavelength. The same procedure was used to determine the antifungal activity of compounds against Candida albicans. The medium used was malt extract broth. The yeast cells were suspended in 0.85% saline, with an optical density equivalent to 0.5 McFarland standard, and diluted 1:100 in malt extract broth to obtain the working concentration. After 24 h incubation with each compound, the turbidity was measured at 530 nm wavelength using a spectrophotometer (Biotek). Percentage inhibition for tested microorganisms was calculated using the following formula:
(§6) MIC was determined as the lowest concentration of the compound that causes complete inhibition (100%) of each microorganism.

[5] = system: Escherichia coli; test: Microtiter plate dilution MIC, E. coli; format: cell-based; details: Escherichia coli, ATCC10798; ATCC 10798, 24 h, 100% inhibition; read-out: Minimum inhibitory concentration (MIC) E.c
Method: as §4, §5, §6

[6] = system: Salmonella typhimurium; test: Microtiter plate dilution MIC, S. typhimurium; format: cell-based; details: Salmonella enterica, ATCC 14028 / TYPHIMURIUM; ATCC14028, 24 h, 100% inhibition; read-out: Minimum inhibitory concentration (MIC) S.t
Method: as §4, §5, §6

[7] = system: Bacillus cereus; test: Microtiter plate dilution MIC, B. cereus; format: cell-based; details: Bacillus cereus; Toxigenic strain TS, 24 h, 100% inhibition; read-out: Minimum inhibitory concentration (MIC) B.c
Method: as §4, §5, §6

[8] = system: Candida albicans; test: Microtiter plate dilution MIC, C. albicans; format: cell-based; details: Candida albicans, ATCC90028; ATCC 90028, malt extract broth, 24 h, 100% inhibition; read-out: Minimum inhibitory concentration (MIC) C.a
Method: as §4, §5, §6

[9] = system: MCF-7 cells; test: TUNEL colorimetric apoptosis assay; format: cell-based, human; details: 15 µg/mL, 28 h, compared with untreated cells
Method: Apoptosis was detected using terminal deoxynucleotidyl transferase (TdT) mediated-16-deoxyuridine triphosphate (dUTP) Nick-End Labelling (TUNEL) system (Promega, Madison, WI, USA). MCF-7 cells cultured in 24 well plates were treated with 15 µg/mL of either 3-O-methylquercetin or 3,3′-di-O-methylquercetin for 28 h. The assay was conducted according to the manufacturer's instructions. Briefly, treated cells were fixed using 10% formalin followed by washing with phosphate buffer saline (PBS). Cells were then permeabilized using 0.2% triton X-100. Biotinylated dUTP in rTdT reaction mixture was added to label the fragmented DNA at 37 °C for one hour, followed by blocking endogenous peroxidases using 0.3% hydrogen peroxide. Streptavidin HRP (1:500 in PBS) was added and incubated at room temperature for 30 min. Finally, hydrogen peroxide and chromagen diaminobenzidine were used to visualize nuclei with fragmented DNAs under the light microscope (Novex, Arnhem, Holland). Cells treated with 40 nM vincristine sulfate were used as a positive control while untreated cells were used as a negative control.

[10] = system: MCF-7 cells; test: Scanning electron microscopy of MCF-7 cells; format: cell-based, human; details: 15 µg/mL compound (vincristin sulfate 40 nM), 48 h
Method: MCF-7 cells were cultured in complete DMEM containing either 15 µg/mL of 3-O-methylquercetin or 3,3′-di-O-methylquercetin and incubated for 48 h in humidified CO2 incubator. Negative control cells were incubated with complete DMEM and positive control cells received complete DMEM containing 40 nM vincristin sulfate. Treated cells were fixed with 3% glutaraldehyde for 1.5 h followed by osmium tetroxide (2% in PBS) for 1 h. After fixation, cells were washed in PBS and sequentially dehydrated using 30%, 70%, and 100% ethanol. Fixed cells were attached to a metal stubs and sputter coated with platinum by using Emitech K550X coating unit (Qourum Technology, West Sussex, UK). The coated specimens were viewed using Inspect F50/FEG scanning electron microscope (FEI, Eindhoven, The Netherlands) at accelerating voltage of 2–5 kV. Bacillus cereus cells treated with 3,3′-di-O-methylquercetin for 24 h were collected by centrifugation and washed with sodium phosphate buffer. Following that, the samples were fixed in 2.5% glutaraldehyde in 0.1 M phosphate buffer, pH 7.3, at 4 °C overnight, and postfixed in 1% osmium tetroxide in the phosphate buffer for 1 h at room temperature. Bacterial cells were dehydrated with sequential ethanol concentrations (30–100%) and coated for the observations under scanning electron microscope.

[11] = system: Bacillus cereus; details: cited from earlier work; for MIC against Bacillus cereus: previous studies ref 31

Row | IC50 [1] [µg/mL] | Compound | IC50 [2] [µg/mL] | IC50 [3] [µg/mL] | Cytomorphological alterations (scanning electron microscopy) [10] | MIC against Bacillus cereus [11] [µg/mL] | further results
1 | 11.2 ± 1.93 (≈ 35.5 µM) | COc1c(-c2ccc(O)c(O)c2)oc2cc(O)cc(O)c2c1=O [3-O-Methylquercetin] | 26.1 ± 2.18 (≈ 82.6 µM) | > 150 | cell shrinkage, membrane blebbing, loss of contact with neighboring cells, and formation of apoptotic bodies | – | MIC [4]: > 250 µg/mL; MIC [5]: > 250 µg/mL; MIC [6]: 125 µg/mL (≈ 395 µM); MIC [7]: 125 µg/mL (≈ 395 µM); MIC [8]: 250 µg/mL (≈ 790 µM); Apoptosis induction (DNA fragmentation, TUNEL) [9]: increase in the number of apoptotic cells with fragmented DNA
2 | 10 ± 1.34 | CC[C@]1(O)C[C@H]2CN(CCc3c([nH]c4ccccc34)[C@@](C(=O)OC)(c3cc4c(cc3OC)N(C=O)[C@H]3[C@@](O)(C(=O)OC)[C@H](OC(C)=O)[C@]5(CC)C=CCN6CC[C@]43[C@@H]65)C2)C1 [Vincristine sulfate, reference compound] | > 90 | > 90 | morphological changes similar to those observed in cells treated with either 3-O-methylquercetin or 3,3′-di-O-methylquercetin | – | –
3 | – | O=c1c(O[C@H]2OC[C@@H](O)[C@@H](O)[C@@H]2O)c(-c2ccc(O)c(O)c2)oc2cc(O)cc(O)c12 [quercetin-3-O-arabinoside] | – | – | – | 350 (≈ 806 µM) | –
4 | – | O=c1c(O)c(-c2ccc(O)c(O)c2)oc2cc(O)cc(O)c12 [quercetin] | – | – | – | 350 (≈ 1160 µM) | –
5 | – | Quercetin-3-O-glycoside | – | – | – | – | Inhibition of Bacillus cereus (concentration) ([11]; previous studies ref 32): 50 µg/mL
